Where a name gives a salt, the structure may show the parent alone. Activity calls are given as the source filed them. No cut-off for these calls is given here. Residues, ends and D or L forms follow the SMILES beside them. *: point of attachment. NHOH = ON* Bounds are passed on as bounds.

Tested on in the first assay: not listed separately
The assay is described as follows: Displacement of PAC1 from Zn2+ incubated for 30 mins prior to PAC1 addition measured after 30 mins by spectrophotometry.
Turning to `CC(C)C[C@H](NC(=O)[C@@H](N)Cc1ccccc1)C(=O)N[C@@H](CCCNC(=N)N)C(=O)NO` (H-Phe-Leu-Arg-{NHOH}), the outcome was Active.

`CC(C)C[C@H](NC(=O)[C@@H](N)Cc1ccccc1)C(=O)N[C@@H](Cc1ccccc1)C(=O)NO` (H-Phe-Leu-Phe-{NHOH}): the outcome was Active.

The target of a further assay is T1, Snake venom metalloproteinase BaP1 (Bothrops asper, UniProt P83512).
T1 sequence (P83512 whole entry): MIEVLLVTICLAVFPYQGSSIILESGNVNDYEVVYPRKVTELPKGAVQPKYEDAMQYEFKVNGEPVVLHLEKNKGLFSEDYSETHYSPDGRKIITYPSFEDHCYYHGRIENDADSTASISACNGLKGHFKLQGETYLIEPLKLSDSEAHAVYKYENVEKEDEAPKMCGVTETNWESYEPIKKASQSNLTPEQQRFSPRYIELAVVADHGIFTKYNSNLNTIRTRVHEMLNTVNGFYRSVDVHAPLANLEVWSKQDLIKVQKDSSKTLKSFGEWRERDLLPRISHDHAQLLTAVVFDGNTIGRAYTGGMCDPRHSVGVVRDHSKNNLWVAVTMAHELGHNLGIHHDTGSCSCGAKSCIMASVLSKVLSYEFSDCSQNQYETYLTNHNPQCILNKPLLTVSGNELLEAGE
Nature of the assay: Inhibition of snake venom BaP1 using Abz-Ala-Gly-Leu-Ala-Nba as substrate incubated for 30 mins prior to substrate addition by fluorescence spectrophotometry.
In turn, `Nc1ccc(/N=N/c2ccccc2)c(N)n1` [PHENAZOPYRIDINE HYDROCHLORIDE] showed an IC50 of 54.3 µM.

As to `CC(C)C[C@H](NC(=O)[C@@H](N)Cc1ccccc1)C(=O)N[C@@H](Cc1ccc(O)cc1)C(N)=O` (H-Phe-Leu-Tyr-NH2), the IC50 was over 1000 µM.

`CNC(=O)[C@H](Cc1ccccc1)NC(=O)[C@H](CC(C)C)[C@H](CSc1cccs1)C(=O)NO` [BATIMASTAT] yielded an IC50 of 1.2 µM.

The compound `CC(C)C[C@H](NC(=O)[C@@H](N)Cc1c[nH]c2ccccc12)C(=O)N[C@@H](Cc1ccc(O)cc1)C(=O)NO` (H-Trp-Leu-Tyr-{NHOH}) returned an IC50 of 46.2 µM.

As for `CC(C)C[C@H](NC(=O)[C@@H](N)Cc1c[nH]c2ccccc12)C(=O)N[C@@H](Cc1ccc(O)cc1)C(N)=O` (H-Trp-Leu-Tyr-NH2), the IC50 was determined as 402 µM.

In turn, `NC(=O)N/N=C/c1ccc([N+](=O)[O-])o1` [NITROFURAZONE] came in with an IC50 of 88.1 µM.

With `CC(C)C[C@H](NC(=O)[C@@H](N)Cc1c[nH]c2ccccc12)C(=O)N[C@@H](Cc1ccccc1)C(N)=O` (H-Trp-Leu-Phe-NH2), the IC50 was over 1000 µM.

`CC(C)C[C@H](NC(=O)[C@@H](N)Cc1c[nH]c2ccccc12)C(=O)N[C@@H](Cc1cnc[nH]1)C(=O)NO` (H-Trp-Leu-His-{NHOH}) registered an IC50 of 58.4 µM.

As to `COc1ccc2c3c([nH]c2c1)C(C)=NCC3` [HARMALINE HYDROCHLORIDE DIHYDRATE], the IC50 was 70.4 µM.

Take `CC(C)C[C@H](NC(=O)[C@@H](N)Cc1ccccc1)C(=O)N[C@@H](Cc1ccccc1)C(N)=O` (H-Phe-Leu-Phe-NH2): the IC50 worked out at 825 µM.

Take `CC(C)C[C@H](NC(=O)[C@@H](N)Cc1ccccc1)C(=O)N[C@@H](Cc1ccc(O)cc1)C(=O)NO` (H-Phe-Leu-Tyr-{NHOH}): half-maximal inhibition (IC50) was put at 30.9 µM.

The compound `CC(C)C[C@H](NC(=O)[C@@H](N)Cc1ccccc1)C(=O)N[C@@H](Cc1cnc[nH]1)C(=O)NO` (H-Phe-Leu-His-{NHOH}) came in with an IC50 of 108 µM.

Regarding `CC(C)C[C@H](NC(=O)[C@@H](N)Cc1ccccc1)C(=O)N[C@@H](CCCNC(=N)N)C(=O)NO` (H-Phe-Leu-Arg-{NHOH}), the IC50 was found to be 4.6 µM.

`CC(C)C[C@H](NC(=O)[C@@H](N)Cc1ccccc1)C(=O)N[C@@H](Cc1ccccc1)C(=O)NO` (H-Phe-Leu-Phe-{NHOH}) registered an IC50 of 0.5 µM.

As to `CC(C)C[C@H](NC(=O)[C@@H](N)Cc1c[nH]c2ccccc12)C(=O)N[C@@H](Cc1ccccc1)C(=O)NO` (H-Trp-Leu-Phe-{NHOH}), the IC50 worked out at 34.2 µM.

`COc1cc2c(cc1OC)-c1cc3ccc(OC)c(OC)c3c[n+]1CC2` [PALMATINE CHLORIDE]: the midpoint of inhibition, the IC50, lay at 93.3 µM.

Compound `CC(C)C[C@H](NC(=O)[C@@H](N)Cc1c[nH]c2ccccc12)C(=O)N[C@@H](CCCNC(=N)N)C(=O)NO` came in with an IC50 of 217 µM.

Broadly, the IC50 is the midpoint of a concentration-inhibition curve.

These data come from ChEMBL document CHEMBL2086269, “Identification of new snake venom metalloproteinase inhibitors using compound screening and rational Peptide design” (ACS Med Chem Lett, 2012).
